Measurements as given in ChEMBL document CHEMBL3751785, “Development and structural analysis of adenosine site binding tankyrase inhibitors” (Bioorg Med Chem Lett, 2016).

Legend:
[1] = target: Protein mono-ADP-ribosyltransferase PARP4 (Homo sapiens, UniProt Q9UKK3); assay: Inhibition of human ARTD4 by fluorescence analysis
[2] = target: T1, Protein mono-ADP-ribosyltransferase PARP12 (Homo sapiens, UniProt Q9H0J9); assay: Inhibition of human ARTD12 by fluorescence analysis
T1 sequence (Q9H0J9 whole entry): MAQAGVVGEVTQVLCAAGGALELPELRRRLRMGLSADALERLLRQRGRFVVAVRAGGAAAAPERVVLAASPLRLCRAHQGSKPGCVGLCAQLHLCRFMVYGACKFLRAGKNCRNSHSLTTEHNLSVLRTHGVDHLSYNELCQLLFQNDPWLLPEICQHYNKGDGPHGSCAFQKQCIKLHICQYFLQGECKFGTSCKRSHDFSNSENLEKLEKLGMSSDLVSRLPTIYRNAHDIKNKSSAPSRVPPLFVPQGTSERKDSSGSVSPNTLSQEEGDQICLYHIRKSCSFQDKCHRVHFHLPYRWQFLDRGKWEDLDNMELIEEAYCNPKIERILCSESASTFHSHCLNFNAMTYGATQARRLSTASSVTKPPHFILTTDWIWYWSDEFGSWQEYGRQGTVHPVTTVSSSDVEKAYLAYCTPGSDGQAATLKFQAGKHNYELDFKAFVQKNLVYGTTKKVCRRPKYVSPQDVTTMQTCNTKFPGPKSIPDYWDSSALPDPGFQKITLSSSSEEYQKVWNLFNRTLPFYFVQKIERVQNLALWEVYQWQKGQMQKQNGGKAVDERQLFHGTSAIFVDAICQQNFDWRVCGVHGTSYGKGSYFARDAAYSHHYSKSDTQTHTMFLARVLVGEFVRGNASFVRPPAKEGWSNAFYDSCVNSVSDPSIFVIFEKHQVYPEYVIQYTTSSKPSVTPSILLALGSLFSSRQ

[3] = target: Poly [ADP-ribose] polymerase 2 (Homo sapiens, UniProt Q9UGN5); assay: Inhibition of human ARTD2 by fluorescence analysis
Poly [ADP-ribose] polymerase 2, sequence (Q9UGN5 whole entry): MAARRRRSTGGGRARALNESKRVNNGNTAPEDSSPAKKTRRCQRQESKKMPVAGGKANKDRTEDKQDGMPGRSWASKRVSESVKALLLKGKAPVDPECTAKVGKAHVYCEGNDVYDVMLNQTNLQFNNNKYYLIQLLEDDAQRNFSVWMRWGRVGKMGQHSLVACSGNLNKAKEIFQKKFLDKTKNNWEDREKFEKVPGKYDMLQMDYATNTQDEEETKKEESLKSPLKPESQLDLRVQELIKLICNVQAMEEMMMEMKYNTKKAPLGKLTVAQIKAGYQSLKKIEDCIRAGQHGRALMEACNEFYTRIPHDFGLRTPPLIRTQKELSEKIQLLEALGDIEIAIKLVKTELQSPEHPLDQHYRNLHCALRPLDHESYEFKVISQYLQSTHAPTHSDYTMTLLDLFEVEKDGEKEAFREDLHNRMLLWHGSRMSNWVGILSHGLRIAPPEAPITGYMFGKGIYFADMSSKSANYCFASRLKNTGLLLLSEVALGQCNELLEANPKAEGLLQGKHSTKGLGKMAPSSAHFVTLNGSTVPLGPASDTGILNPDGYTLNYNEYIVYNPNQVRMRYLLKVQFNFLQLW

[4] = target: Poly [ADP-ribose] polymerase 1 (Homo sapiens, UniProt P09874); assay: Inhibition of human ARTD1 by fluorescence analysis
Poly [ADP-ribose] polymerase 1, sequence (P09874 whole entry): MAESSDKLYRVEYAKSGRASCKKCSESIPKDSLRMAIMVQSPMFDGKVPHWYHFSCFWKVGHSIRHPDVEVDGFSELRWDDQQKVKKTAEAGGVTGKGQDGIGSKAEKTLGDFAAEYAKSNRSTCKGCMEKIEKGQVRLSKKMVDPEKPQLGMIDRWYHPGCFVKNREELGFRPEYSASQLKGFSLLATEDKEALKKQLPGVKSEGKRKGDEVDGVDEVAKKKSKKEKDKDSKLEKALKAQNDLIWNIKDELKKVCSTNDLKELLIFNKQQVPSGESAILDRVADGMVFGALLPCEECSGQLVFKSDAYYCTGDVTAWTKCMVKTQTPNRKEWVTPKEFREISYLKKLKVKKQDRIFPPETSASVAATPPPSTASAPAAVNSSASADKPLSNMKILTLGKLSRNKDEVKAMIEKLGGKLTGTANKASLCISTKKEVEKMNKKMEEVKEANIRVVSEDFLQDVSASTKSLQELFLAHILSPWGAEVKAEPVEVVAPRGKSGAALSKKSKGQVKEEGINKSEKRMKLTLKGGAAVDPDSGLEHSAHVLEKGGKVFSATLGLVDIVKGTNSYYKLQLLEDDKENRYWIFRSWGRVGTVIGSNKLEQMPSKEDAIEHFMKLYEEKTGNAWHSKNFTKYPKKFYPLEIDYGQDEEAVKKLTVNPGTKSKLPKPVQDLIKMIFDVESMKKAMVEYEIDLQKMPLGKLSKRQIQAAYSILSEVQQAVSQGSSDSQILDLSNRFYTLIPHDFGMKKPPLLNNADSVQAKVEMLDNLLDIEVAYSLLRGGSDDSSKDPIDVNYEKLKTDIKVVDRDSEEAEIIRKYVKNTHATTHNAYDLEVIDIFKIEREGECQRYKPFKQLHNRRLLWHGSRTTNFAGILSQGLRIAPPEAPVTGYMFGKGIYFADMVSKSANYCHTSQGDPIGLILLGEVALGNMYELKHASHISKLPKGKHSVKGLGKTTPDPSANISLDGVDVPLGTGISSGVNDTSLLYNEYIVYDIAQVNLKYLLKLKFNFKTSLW

[5] = target: T2, Protein mono-ADP-ribosyltransferase PARP3 (Homo sapiens, UniProt Q9Y6F1); assay: Inhibition of human ARTD3 by fluorescence analysis
T2 sequence (Q9Y6F1 whole entry): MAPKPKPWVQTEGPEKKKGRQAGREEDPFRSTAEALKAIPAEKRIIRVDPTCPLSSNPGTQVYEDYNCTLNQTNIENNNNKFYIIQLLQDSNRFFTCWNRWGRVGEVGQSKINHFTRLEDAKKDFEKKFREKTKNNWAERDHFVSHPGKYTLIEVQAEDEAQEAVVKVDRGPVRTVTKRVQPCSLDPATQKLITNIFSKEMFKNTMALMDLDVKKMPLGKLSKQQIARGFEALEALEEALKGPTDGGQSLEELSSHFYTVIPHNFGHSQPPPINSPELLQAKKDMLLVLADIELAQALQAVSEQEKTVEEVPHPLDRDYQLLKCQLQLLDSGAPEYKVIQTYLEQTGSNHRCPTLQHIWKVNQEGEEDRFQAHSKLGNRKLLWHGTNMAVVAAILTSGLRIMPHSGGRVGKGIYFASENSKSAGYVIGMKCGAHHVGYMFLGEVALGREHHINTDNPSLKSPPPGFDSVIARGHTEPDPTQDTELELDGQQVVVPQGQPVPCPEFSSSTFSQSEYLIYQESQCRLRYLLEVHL

[6] = target: T3, Protein mono-ADP-ribosyltransferase PARP10 (Homo sapiens, UniProt Q53GL7); assay: Inhibition of human ARTD10 by fluorescence analysis
T3 sequence (Q53GL7 whole entry): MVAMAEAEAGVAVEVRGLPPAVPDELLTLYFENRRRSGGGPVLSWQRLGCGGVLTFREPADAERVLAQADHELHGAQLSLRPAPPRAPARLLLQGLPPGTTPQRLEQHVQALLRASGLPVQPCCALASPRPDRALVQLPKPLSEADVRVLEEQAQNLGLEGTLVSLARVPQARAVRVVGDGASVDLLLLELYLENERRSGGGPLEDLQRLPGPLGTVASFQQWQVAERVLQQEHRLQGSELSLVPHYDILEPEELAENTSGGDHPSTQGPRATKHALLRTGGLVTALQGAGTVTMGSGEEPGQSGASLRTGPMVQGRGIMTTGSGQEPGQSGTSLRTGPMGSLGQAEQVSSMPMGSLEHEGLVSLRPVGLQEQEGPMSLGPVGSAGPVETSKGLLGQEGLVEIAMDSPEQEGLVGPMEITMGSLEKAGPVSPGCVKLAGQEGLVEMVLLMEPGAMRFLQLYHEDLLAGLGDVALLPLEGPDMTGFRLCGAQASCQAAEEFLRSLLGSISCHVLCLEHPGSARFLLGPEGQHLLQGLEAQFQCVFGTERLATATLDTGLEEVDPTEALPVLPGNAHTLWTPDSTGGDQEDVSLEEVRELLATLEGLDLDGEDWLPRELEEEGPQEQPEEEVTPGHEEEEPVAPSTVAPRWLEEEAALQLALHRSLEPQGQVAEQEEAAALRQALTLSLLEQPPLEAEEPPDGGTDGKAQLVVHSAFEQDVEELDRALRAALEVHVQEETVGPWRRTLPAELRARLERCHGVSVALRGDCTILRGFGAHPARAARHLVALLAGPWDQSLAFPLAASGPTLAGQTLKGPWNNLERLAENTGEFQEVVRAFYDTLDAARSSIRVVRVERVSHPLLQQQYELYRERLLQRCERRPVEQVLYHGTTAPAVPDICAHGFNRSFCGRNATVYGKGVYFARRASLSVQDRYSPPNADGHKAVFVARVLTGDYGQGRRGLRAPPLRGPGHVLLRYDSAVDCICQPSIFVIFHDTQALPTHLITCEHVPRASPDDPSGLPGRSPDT

Protein mono-ADP-ribosyltransferase PARP4, sequence (Q9UKK3 whole entry): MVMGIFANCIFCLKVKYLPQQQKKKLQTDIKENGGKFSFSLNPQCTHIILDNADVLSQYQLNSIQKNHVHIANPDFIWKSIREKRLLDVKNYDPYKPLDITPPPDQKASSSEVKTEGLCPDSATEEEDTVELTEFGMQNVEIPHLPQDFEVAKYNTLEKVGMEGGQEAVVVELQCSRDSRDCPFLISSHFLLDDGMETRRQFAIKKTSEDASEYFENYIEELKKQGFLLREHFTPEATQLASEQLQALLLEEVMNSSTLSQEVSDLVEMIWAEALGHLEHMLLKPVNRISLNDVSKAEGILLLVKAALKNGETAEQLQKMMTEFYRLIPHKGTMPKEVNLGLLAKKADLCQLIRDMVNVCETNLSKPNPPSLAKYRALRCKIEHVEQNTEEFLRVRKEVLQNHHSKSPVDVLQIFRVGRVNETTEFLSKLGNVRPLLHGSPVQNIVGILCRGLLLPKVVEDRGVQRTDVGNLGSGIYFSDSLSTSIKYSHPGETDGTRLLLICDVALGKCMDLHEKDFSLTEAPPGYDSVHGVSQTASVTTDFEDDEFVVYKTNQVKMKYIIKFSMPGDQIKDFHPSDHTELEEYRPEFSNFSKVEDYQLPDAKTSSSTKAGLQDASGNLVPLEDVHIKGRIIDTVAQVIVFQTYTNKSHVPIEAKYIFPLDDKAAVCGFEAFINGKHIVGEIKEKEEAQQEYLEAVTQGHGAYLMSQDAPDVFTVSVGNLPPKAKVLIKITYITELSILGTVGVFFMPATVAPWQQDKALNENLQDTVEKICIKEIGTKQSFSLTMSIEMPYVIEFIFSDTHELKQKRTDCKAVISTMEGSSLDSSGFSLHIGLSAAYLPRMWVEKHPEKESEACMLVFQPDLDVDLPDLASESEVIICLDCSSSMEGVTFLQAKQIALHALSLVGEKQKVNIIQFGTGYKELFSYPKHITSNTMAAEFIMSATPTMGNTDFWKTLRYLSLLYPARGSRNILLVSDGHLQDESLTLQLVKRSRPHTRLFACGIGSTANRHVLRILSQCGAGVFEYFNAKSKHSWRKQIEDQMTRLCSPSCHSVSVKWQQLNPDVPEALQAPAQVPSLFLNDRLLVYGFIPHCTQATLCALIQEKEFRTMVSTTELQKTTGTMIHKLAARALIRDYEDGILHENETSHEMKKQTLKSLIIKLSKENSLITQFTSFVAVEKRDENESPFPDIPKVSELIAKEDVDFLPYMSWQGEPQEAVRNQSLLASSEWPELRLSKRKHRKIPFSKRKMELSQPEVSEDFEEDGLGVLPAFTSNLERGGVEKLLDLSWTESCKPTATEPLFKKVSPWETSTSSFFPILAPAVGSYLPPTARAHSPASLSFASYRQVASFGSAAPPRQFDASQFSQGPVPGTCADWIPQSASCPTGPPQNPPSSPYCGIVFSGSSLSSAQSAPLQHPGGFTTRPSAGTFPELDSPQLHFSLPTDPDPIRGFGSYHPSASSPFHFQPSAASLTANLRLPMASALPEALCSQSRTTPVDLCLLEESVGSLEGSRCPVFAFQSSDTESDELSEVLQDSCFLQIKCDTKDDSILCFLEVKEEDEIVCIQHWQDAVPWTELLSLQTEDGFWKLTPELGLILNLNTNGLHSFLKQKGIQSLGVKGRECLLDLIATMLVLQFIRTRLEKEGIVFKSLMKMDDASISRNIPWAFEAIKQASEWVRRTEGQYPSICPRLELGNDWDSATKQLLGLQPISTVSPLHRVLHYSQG

IC50 [1]: > 100 µM
IC50 [2]: > 10 µM
IC50 [3]: > 100 µM
IC50 [4]: > 100 µM
IC50 [5]: > 100 µM
IC50 [6]: > 10 µM
SMILES: COc1ccc(C2(CNC(=O)c3ccc(NC(=O)c4ccco4)cc3Cl)CCOCC2)cc1
